According to US11324747B2, “Methods and compositions for managing neuroinflammation and neurodegeneration” (CENTRE FOR CELLULAR AND MOLECULAR PLATFORMS, priority 2016, dated 2022):
Entries after “also recorded” stand apart in the source; their conditions may differ. Like-named read-outs stand apart in the source and are kept apart here.

Tests used:
BV2 cells [1] = test: LPS induced nitrite release in BV2 cells (Griess assay); format: cell-based, mice; conditions: Example 1; LPS 1 μg/ml, 48 hours, vs LPS alone
Description: The immortalized rat mesencephalic dopaminergic cells (N27 cells) were grown in RPMI 1640 medium containing 10% Fetal Bovine Serum (FBS), 2 mM L-glutamine, 50 U Penicillin and 50 μg/ml Streptomycin [22]. Mice microglial cells (BV2 cells) were grown in RPMI 1640 medium containing 10% Heat Inactivated Fetal Bovine Serum (HI-FBS). Cells were maintained in a humidified atmosphere of 5% CO2 at 37° C. until they were 60-70% confluent.
BV2 (Mice Glial Cells) cells were treated with LPS at a concentration of 1 μg/ml in the presence or absence of test compounds PD180970 or AGK-2 at a concentrating ranging from 0.1 nM-[…] and incubated for 48 hours at 37° C. at 5% CO2. Griess assay was used to measure nitrite released in order to investigate the anti-inflammatory potential of the compounds. Untreated BV2 cells was used as blank, 0.1% DMSO in media was used as vehicle. LPS (1 μg/ml) was used as control for nitrite release.

BV2 cells [2] = test: LPS induced nitrite release by BV2 in N27-BV2 co-culture (Griess assay); format: cell-based, mice; conditions: LPS 1 μg/ml, 30 hours
N27 cells [3] = test: Toxicity to N27 cells induced by conditioned media from LPS activated BV2 cells (MTS assay); format: cell-based, rat; conditions: Example 3, FIG. 3, LPS 1 μg/ml, 30 hours
IL-6 = test: LPS induced IL-6 secretion by BV2 in N27-BV2 co-culture (Luminex multiplexing assay); format: cell-based, mice; conditions: Example 4.3; LPS 1 μg/ml, compound 1 μM, 30 hours
Description: (§1) Luminex multiplexing assay was performed to determine the concentration of IL-6 and MCP-1 released. LPS (1 μg/ml) was used as control for IL-6 release or MCP-1 release.

MCP-1 = test: LPS induced MCP-1 secretion by BV2 in N27-BV2 co-culture (Luminex multiplexing assay); format: cell-based, mice; conditions: Example 4.3; LPS 1 μg/ml, compound 1 μM, 30 hours
Description: as §1

HEK-Blue™ TLR4 cells = test: nF-κB induced SEAP activity in HEK-Blue TLR4 cells; format: cell-based; conditions: LPS 10 ng/ml, compound 1 nM-100 μM, 12 hours
Description: (§2) Hek-Blue TLR-2, TLR-3 and TLR-4 Cells were obtained from InvivoGen (San Diego, Calif.). Culture treatment and assay was performed as per the manufacturers recommended protocol. Cells were treated and incubated for 12 hours, followed by collection of OD values at 620 nm.
(§3) HEK-Blue™ TLR4 cells were treated with LPS and HEK-Blue™ TLR2 were treated with Pam3CSK4 at a concentration of 10 ng/ml for 12 hours in the presence or absence of compounds (PD180970 or AGK-2) at a range of 1 nM-100 μM, and assayed for SEAP activity. LPS ([…]) was used as control for SEAP activity. nF-κB induced SEAP activity was quantified using HEK-Blue™ Detection at 620 nm.

HEK-Blue™ TLR2 cells = test: nF-κB induced SEAP activity in HEK-Blue TLR2 cells; format: cell-based; conditions: Pam3CSK4 10 ng/ml, compound 1 nM-100 μM, 12 hours
Description: as §2, §3

N27 cells [4] = test: Hydrogen peroxide induced neurotoxicity in N27 cells (MTS assay); format: cell-based, rat; conditions: 75 μM hydrogen peroxide, compound 0.1 nM-10 μM, 8 hours
Description: Cells were co-treated with 75 μM H2O2 in the presence and absence of compounds for 8 hours. Treatments were made in complete RPMI medium containing 2% FBS.
N27 cells were treated with 75 μM hydrogen peroxide in the presence and absence of compounds PD180970 or AGK2 in a concentration range of 0.1 nM-10 μM for 8 hours in 96 well plates. MTS assay was used to check the cell viability in order to investigate the neuroprotective potential of the compounds. Cells with untreated media was used as blank, and cells with media containing 0.1% DMSO (vehicle or solvent for the compounds) was used as vehicle. Hydrogen peroxide (75 μM) treated N27 cells was used as control for.

N27 cells [5] = test: MPP+ induced neurotoxicity in N27 cells (MTS assay); format: cell-based, rat; conditions: 300 μM MPP+, compound 0.1 nM-10 μM, 24 hours
Description: Cells were co-treated with 300 μM MPP^+ in the presence and absence of compounds for 24 hours. Treatments were made in complete RPMI medium containing 2% FBS.
N27 cells were treated with 300 μM of MPP^+ in the presence and absence of compounds (PD180970 or AGK-2) in a concentration range of 0.1 nM-10 μM and incubated for 24 hours. MPP^+ (300 μM) treated N27 cells was used as control. MTS assay was used to check the cell viability in order to investigate the neuroprotective potential of the compounds. None of the compounds could rescue MPP^+ treated dopaminergic N27 cells.

N27 cells [6] = conditions: 30 hours; for neuroprotective effect on N27 cell survival: Example 2.1; for neuroprotective effect on N27 cell survival / neuronal survival as compared to LPS alone / N27 cell survival (protective effect) vs LPS alone / protective effect in N27 cells: LPS 1 μg/ml; for neuronal survival as compared to LPS alone: Example 2.2; for effect of compound alone on the cells, survival, nitrite release or morphology: compound 1 μM without LPS; for protective effect in N27 cells: Example 5
Description: The survival of the N27 cells was then measured using MTS Assay.
N27 (Rat Dopaminergic cells) and BV2 (Mice Glial Cells) cells were co-cultured in Corning HTS Transwell Plates in RPMI Complete media supplemented with 10% HI-FBS, N27 in the lower well of the 24 well plates and BV2 in the 0.4 μm porous permeable support inserted on top of the 24 well for 24 hours at 37° C., 5% CO2. BV2 cells were treated with 1 μg/ml LPS in the presence and absence of 10 μM of CCND-01, CCND-02, CCND-03 and CCND-04, and 10 mM of NAC for 30 hours at 37° C., 5% CO2. The survival of N27 cells was then measured by performing MTS Assay and taking readings at 490 nm after 30 mins of incubation.
MTS assay was performed to determine the percentage N27 survival.

ERRγ = target: T1, ERRγ (Homo sapiens, UniProt P62508); conditions: at concentrations below 10 μM; cited from earlier work
T1 sequence (P62508 1-458): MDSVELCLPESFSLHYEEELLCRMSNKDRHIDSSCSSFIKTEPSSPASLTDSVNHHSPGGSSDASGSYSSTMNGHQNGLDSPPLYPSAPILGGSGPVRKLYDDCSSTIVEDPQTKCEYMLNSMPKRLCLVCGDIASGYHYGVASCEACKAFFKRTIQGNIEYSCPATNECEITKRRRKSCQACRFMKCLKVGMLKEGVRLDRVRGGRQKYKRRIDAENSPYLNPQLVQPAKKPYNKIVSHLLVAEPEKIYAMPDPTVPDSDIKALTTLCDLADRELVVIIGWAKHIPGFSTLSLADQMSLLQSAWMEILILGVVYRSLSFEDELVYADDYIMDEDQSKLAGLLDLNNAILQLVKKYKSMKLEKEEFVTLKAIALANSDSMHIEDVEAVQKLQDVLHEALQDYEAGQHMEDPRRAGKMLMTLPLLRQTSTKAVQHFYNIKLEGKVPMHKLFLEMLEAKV

ERα = target: T2, ERα (Homo sapiens, UniProt P03372); conditions: at concentrations below 10 μM; cited from earlier work
T2 sequence (P03372 1-595): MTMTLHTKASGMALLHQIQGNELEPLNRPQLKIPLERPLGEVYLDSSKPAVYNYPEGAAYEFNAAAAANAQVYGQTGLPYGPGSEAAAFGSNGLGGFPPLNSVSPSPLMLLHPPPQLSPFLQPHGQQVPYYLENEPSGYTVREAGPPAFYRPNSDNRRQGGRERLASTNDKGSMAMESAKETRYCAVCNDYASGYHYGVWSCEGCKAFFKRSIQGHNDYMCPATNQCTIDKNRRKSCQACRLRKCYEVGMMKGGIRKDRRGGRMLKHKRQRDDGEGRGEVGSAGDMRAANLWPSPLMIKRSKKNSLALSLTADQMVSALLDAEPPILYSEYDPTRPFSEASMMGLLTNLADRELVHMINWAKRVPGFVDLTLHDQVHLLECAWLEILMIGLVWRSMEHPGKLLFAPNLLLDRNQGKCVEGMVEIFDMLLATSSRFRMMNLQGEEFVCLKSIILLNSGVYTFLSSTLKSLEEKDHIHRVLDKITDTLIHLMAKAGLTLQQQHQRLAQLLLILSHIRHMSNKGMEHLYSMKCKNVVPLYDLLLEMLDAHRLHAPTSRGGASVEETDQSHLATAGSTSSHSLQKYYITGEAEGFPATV

| Compound | levels of nitrite released by LPS treated BV2 cells (BV2 cells [1]) | level of nitrite released by LPS induced BV2 cells (BV2 cells [2]; Example 2.2, compound 1 μM) | level of nitrite released by LPS induced BV2 cells (BV2 cells [2]; Example 4, compound 1 μM) | neuroprotective effect in N27 cells (N27 cells [3]; compound 10 μM) | level of IL-6 released by LPS induced BV2 cells (IL-6) | level of MCP-1 released by LPS induced BV2 cells (MCP-1) | nF-κB induced SEAP activity (HEK-Blue™ TLR4 cells) | nF-κB induced SEAP activity (HEK-Blue™ TLR2 cells) | neuroprotective effect on H2O2 induced toxicity (N27 cells [4]) | neuroprotective effect on MPP+ induced toxicity (N27 cells [5]) | neuroprotective effect on N27 cell survival (N27 cells [6]; compound 10 μM) | neuronal survival as compared to LPS alone (N27 cells [6]; compound 1 μM) | N27 cell survival (protective effect) vs LPS alone (N27 cells [6]; Example 4, compound 1 μM) | effect of compound alone on the cells, survival, nitrite release or morphology (N27 cells [6]; Example 4) | protective effect in N27 cells (N27 cells [6]; compound 10 μM) | also measured |
| --- | --- | --- | --- | --- | --- | --- | --- | --- | --- | --- | --- | --- | --- | --- | --- | --- |
| N#C/C(=C\c1ccc(-c2cc(Cl)ccc2Cl)o1)C(=O)Nc1cccc2ncccc12 [AGK-2] | significant reduction in levels of nitrite | significant reduction in level of nitrite | significant decrease in nitrite level; also recorded: significant reduction in level of nitrite | significant neuroprotective effect | significant reduction in level of IL-6 | significant reduction in levels of IL-6 and MCP-1 | significant inhibitory effect | not in HEK-Blue™ TLR2 cells | no significant neuroprotective effect | no significant neuroprotective effect | significant neuroprotective effect | significant increase in neuronal survival | significant protective effect; also recorded: significant increase in neuronal survival | no effect | significant protective effect | – |
| COc1cc(/C=C(\C#N)C(=O)Nc2nnc(C(F)(F)F)s2)ccc1OCc1ccc(C(F)(F)F)cc1C(F)(F)F [CCND-04] | – | – | – | – | – | – | – | – | – | – | – | – | – | – | – | antagonist activity on ERRγ (ERRγ): no significant antagonist activity; antagonist activity on ERα (ERα): no significant antagonist activity |
| Cc1ccc(NC(=O)c2ccc(CN3CCN(C)CC3)cc2)cc1Nc1nccc(-c2cccnc2)n1 [Imatinib] | – | – | – | – | – | – | – | – | – | – | – | – | – | – | significant protective effect | – |
| CC(=O)N[C@@H](CS)C(=O)O [NAC, N-acetylcysteine] | – | – | – | – | – | – | – | – | – | – | – | – | – | – | neuroprotective role | level of nitrite released by LPS induced BV2 cells (BV2 cells [2]; Example 2.2, NAC 10 mM): significant reduction in level of nitrite; neuroprotective effect in N27 cells (N27 cells [3]; NAC 1 mM): significant neuroprotective effect; neuroprotective effect on N27 cell survival (N27 cells [6]; NAC 10 mM): inhibit neuronal cell death; neuronal survival as compared to LPS alone (N27 cells [6]; NAC 10 mM): significant increase in neuronal survival; N27 cell survival (protective effect) vs LPS alone (N27 cells [6]; Example 4.1, NAC 10 μM): significant protective effect |
| Cc1cn(-c2cc(NC(=O)c3ccc(C)c(Nc4nccc(-c5cccnc5)n4)c3)cc(C(F)(F)F)c2)cn1 [Nilotinib] | – | – | – | – | – | – | – | – | – | – | – | – | – | – | significant protective effect | – |
| Cc1cc(Nc2ncc3cc(-c4c(Cl)cccc4Cl)c(=O)n(C)c3n2)ccc1F [PD180970] | significant reduction in levels of nitrite | significant reduction in level of nitrite | significant decrease in nitrite level; also recorded: significant reduction in level of nitrite | significant neuroprotective effect | significant reduction in level of IL-6 | significant reduction in levels of IL-6 and MCP-1 | significant inhibitory effect | not in HEK-Blue™ TLR2 cells | no significant neuroprotective effect | no significant neuroprotective effect | significant neuroprotective effect | significant increase in neuronal survival | significant protective effect; also recorded: significant increase in neuronal survival | no effect | significant protective effect | – |
